Results reported in patent US6586592B2, “Bis-arylsulfones” (Pharmacia & Upjohn Company, priority 2000, dated 2003).
Structures can show the parent of a compound that is named as a salt.

Key:
[1] = target: T1, cloned human 5-HT6 receptor (Homo sapiens, UniProt P50406); test: 5-HT6 receptor binding assay ([3H]-LSD radioligand, SPA beads); conditions: membranes of Hela cells containing cloned human 5-HT6 receptor, IC50 converted to Ki by Cheng-Prusoff
T1 construct: membrane preparation
Description: 5-HT6 Receport Binding Assay
Growth of Cells and Membrane Preparation
Harvested intact cells are washed once in cold phosphate-buffered saline. The cells are pelleted and resuspended in 100 ml of cold 50 mM Tris, 5 mM EDTA and 5 mM EGTA, pH 7.4. Homogenization is with a Vir Tishear generator, 4 cycles for 30 seconds each at setting 50. The homogenized cells are centrifuged at 700 RPM (1000×g) for 10 minutes and the supernatant is removed. […] The rehomogenized cells are then centrifuged at 700 RPM (1000×g) for 10 minutes and the supernatant is removed. […] The membrane pellet is resupended in 50-8-ml of assay buffer containing HEPES 20 mM, MgCl2 10 mM, NaCl 150 mM, EDTA 1 mM, pH 7.4 and stored frozen in aliqouts at −70° C.
5-HT6 Receptor Binding Assay
The radioligand binding assay used [^3H]-lysergic acid diethylamide (LSD). The assay is carried out in Wallac 96-well sample plates by the addition of 11 μl of the test sample at the appropriate dilution (the assay employed 11 serial concentrations of samples run in duplicate), 11 μl of radioligand, and 178 μl of a washed mixture of WGA-coated SPA beads and membranes in binding buffer. The plates are shaken for about 5 minutes and then incubated at room temperature for 1 hour. The plates are then loaded into counting cassettes and counted in a Wallac MicroBeta Trilux scintillation counter.
Binding Constant (Ki) Determination
Eleven serial dilutions of test compounds are distributed to assay plates using the PE/Cetus Pro/Pette pipetter. These dilutions were, followed by radioligand and the bead-membrane mixture prepared as described above. The specifically bound cpm obtained are fit to a one-site binding model using GraphPad Prism ver. 2.0.

T1 sequence (P50406 whole entry): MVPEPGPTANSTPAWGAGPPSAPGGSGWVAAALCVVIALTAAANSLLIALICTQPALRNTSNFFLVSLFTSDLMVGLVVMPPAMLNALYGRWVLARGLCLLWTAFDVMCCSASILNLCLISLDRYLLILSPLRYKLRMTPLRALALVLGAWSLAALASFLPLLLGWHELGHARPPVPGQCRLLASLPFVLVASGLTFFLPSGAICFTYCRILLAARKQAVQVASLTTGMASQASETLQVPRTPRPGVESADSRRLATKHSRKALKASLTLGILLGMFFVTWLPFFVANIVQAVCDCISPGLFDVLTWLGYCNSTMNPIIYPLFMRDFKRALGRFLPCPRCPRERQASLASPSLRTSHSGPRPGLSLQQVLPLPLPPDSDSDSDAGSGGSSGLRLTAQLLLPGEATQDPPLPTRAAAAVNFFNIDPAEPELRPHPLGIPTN

melting point | Ki [1] | SMILES
102 to 106 °C | 23 nM | Cc1ccc(S(=O)(=O)c2ccc(N3CCNCC3)cc2N)cc1 [Example 5, 2-[(4-methylphenyl)sulfonyl]-5-(1-piperazinyl) Phenylamine]
 | 31 nM | Nc1cc(N2CCNCC2)ccc1S(=O)(=O)c1ccc(F)cc1 [Example 3, 2-[(4-fluorophenyl)sulfonyl]-5-(1-piperazinyl) Phenylamine]
153 to 154 °C |  | CNc1cc(N2CCCNCC2)ccc1S(=O)(=O)c1cccc(F)c1.Cl
121 to 123 °C |  | CCNc1cc(N2CCNCC2)ccc1S(=O)(=O)c1ccccc1.Cl [Example 13, N-ethyl-2-(phenylsulfonyl)-5-(1-piperazinyl) Phenylamine]
 | 2.6 nM | Nc1cc(N2CCNCC2)ccc1S(=O)(=O)c1ccccc1 [Example 1, 2-(phenylsulfonyl)-5-(1-piperazinyl)phenylamine]
90 to 93 °C | 3.6 nM | CN1CCN(c2ccc(S(=O)(=O)c3ccccc3)c(N)c2)CC1.Cl [Example 7, 5-(4-methyl-1-piperazinyl)-2-(phenylsulfonyl) Phenylamine]
 | 79 nM | Nc1cc(N2CCCNCC2)ccc1S(=O)(=O)c1ccc(F)c(F)c1 [Example 9, 5-(1,4-diazepan-1-yl)-2-[(3,4-difluorophenyl)sulfonyl]phenylamine]
148 to 151 °C | 68 nM | Cc1ccc(S(=O)(=O)c2ccc(N3CCN(C)CC3)cc2N)cc1 [Example 6, 2-[(4-methylphenyl)sulfonyl]-5-(4-methyl-1-piperazinyl) Phenylamine]
 | 11 nM | Nc1cc(N2CCCNCC2)ccc1S(=O)(=O)c1cc(F)cc(F)c1 [Example 11, 5-(1,4-diazepan-1-yl)-2-[(3,5-difluorophenyl)sulfonyl]phenylamine]
 | 11 nM | Nc1cc(N2CCCNCC2)ccc1S(=O)(=O)c1ccccc1 [Example 10, 5-(1,4-diazepan-1-yl)-2-(phenylsulfonyl) Phenylamine]
89 to 92 °C | 5.2 nM | CN1CCN(c2ccc(S(=O)(=O)c3cccc(F)c3)c(N)c2)CC1.Cl [Example 8, 2-[(3-fluorophenyl)sulfonyl]-5-(4-methyl-1-piperazinyl) Phenylamine]
165 to 166 °C |  | Nc1cc(N2CCNCC2)ccc1S(=O)(=O)c1ccccc1 (as salt: salt) [Example 1, 2-(phenylsulfonyl)-5-(1-piperazinyl)phenylamine]
85 to 89 °C | 32 nM | CN1CCN(c2ccc(S(=O)(=O)c3ccc(F)cc3)c(N)c2)CC1.Cl [Example 4, 2-[(4-fluorophenyl)sulfonyl]-5-(4-methyl-1-piperazinyl) Phenylamine]
106 to 108 °C |  | Cl.Nc1cc(N2CCCNCC2)ccc1S(=O)(=O)c1cccc(F)c1 [Example 2, 5-(1,4-diazepan-1-yl)-2-[(3-fluorophenyl)sulfonyl]phenylamine]
